Columns and labels:
Acute toxicity (LD50) = test: Acute toxicity (LD50); design: species or system mice; conditions: mouse, in vivo; death ratio observed for 14 days; Behrens-Korber's method
Source text: (3) Acute toxicity (LD50):
On each occasion, the test compound was given to the test animal.

Sarcoma 180 solid tumour = test: Effect on Sarcoma 180 solid tumour (ED50, chemotherapeutic index); type: in vivo, ddy mice; conditions: Anti-tumour activity; ratio of LD50 to ED50; ED50 = dose giving T/C 0.5 of Sarcoma 180 solid tumour volume, intraperitoneal injection
Source text: (1) Effect on Sarcoma 180 solid tumour:
5 x 10^6 cells of Sarcoma 180 solid tumour were innoculated into the abdominal cavities of groups of ddy mice, each group consisting of 5 mice. 7..days after this, on each occasion, the tumour cells were collected from the ascites of the mouse. The cells were washed with a sterilized physiological sodium chloride solution and used to prepare a cell suspension containing 5 x 10^7 cells per ml of a sterilized physiological solution of sodium chloride, of which 0.1 ml was injected under the skin of the right armpit of a ddy male mouse (body weight 20 ±2 g). A test compound was dissolved in a physiological solution of sodium chloride or a similar solution containing Tween 80 (a surfactant commercially available from Atlas Chemical Industries, Inc., U.S.A.). 24 hours after the implantation of the tumours cells, the test compound (0.1 to 0.2 ml) was injected into the test mice intraperitoneally. In order to determine the antitumour activity of the test compound, 7 days after the implantation of the tumour cells, on each occasion, the major axis (a) and minor axis (b) of the tumour were measured to calculate the volume of the tumour ['a' x ^Ib'/2]. The anti-tumour effect was evaluated by the ratio of the tumour volume in the test animals (T) to the corresponding volume of the control (untreated) animals (C).
(2) Determination of ED50.
A dose capable of reducing the volume of a Sarcoma 180 solid tumour to 50% of the corresponding volume of the untreated group on average was defined as the ED50. T/C ratios and the doses were respectively plotted on the ordinate in arithmetic scale and abscissa in logarithmic scale on graph paper, from which the relationship between the doses and the T/C ratios was calculated as a straight line by the least square method. From the straight tropic line thus-obtained, the dose corresponding to a T/C of 0.5 was determined.

[1] = Effect upon the number of peripheral leukocytes (WBC 4000); type: in vivo; conditions: mouse, Toxicity against bone marrow, WBC 4000 = dose giving 4000 leukocytes/mm3, Sarcoma 180 bearing mice, read-out: WBC 4000/ ED50
Protocol: (5) Effect upon the number of peripheral leukocytes:
5 x 10^6 cells of Sarcoma 180 solid tumour were implanted under the skin of each mouse at the right armpit. 24 hours after this, venous blood (0.02 ml) was collected from the eyepit of the mouse and suspended in Cell-Kit Seven solution (10 ml; commercially available from Toa Iryo Denshi K.K., Japan).
To the suspension, a drop of saponin solution was added to dissolve the red cells and the number of leukocytes were counted using a microcell counter. The number of leukocytes and the corresponding dose were respectively plotted on the ordinate in arithmetic scale and on the abscissa in logarithmic scale on graph paper to investigate the relationship between dosage and the number of peripherical leukocytes. A dose capable of giving 4000 leukocytes/mm3 was defined as WBC 4000, which corresponded to about 1/2 the number of peripherical leukocytes in normal mice.
The greater the ratio of WBC 4000 to ED50 the smaller the decrease in the number of peripherical leukocytes viz. the lower the toxicity against bone marrow in the area of the effective dose.

Row | Structure (SMILES) | LD50 at 336 h (Acute toxicity (LD50)) | C.I. (Sarcoma 180 solid tumour) | selectivity ratio [1]
1 | CC1=C(NCCSSCCNC2=C(C)C(=O)C3=C(C2=O)C(COC(N)=O)C2(O)C4C(CN32)N4C)C(=O)C2=C(C1=O)N1CC3C(N3C)C1(O)C2COC(N)=O (stereo not drawn) [a, 7-N,7'-N'-dithiodiethylenedimitomycin D] | > 60 mg/kg | >2.99 | 2.29
2 | CC1=C(NCCSSCCN)C(=O)C2=C(C1=O)N1CC3C(N3C)C1(O)C2COC(N)=O (stereo not drawn) [c, 7-N-[2-(2-aminoethyl)dithioethyl]mitomycin D] | 74.3 mg/kg | 3.11 | 1.87
3 | CCSSCCNC1=C(C)C(=O)C2=C(C1=O)C(COC(N)=O)C1(OC)C3NC3CN21 (stereo not drawn) [g, 7-N-(2-ethyldithioethyl)mitomycin C] | 5.4 mg/kg | 1.64 | 3.76
4 | COC12C(COC(N)=O)C3=C(C(=O)C(C)=C(NCCSSCCO)C3=O)N1CC1NC12 (stereo not drawn) [i, 7-N-[2-(2-hydroxyethyl)dithioethyl]mitomycin C] | ≤ 11.2 mg/kg | ≤2.12 | 2.13
5 | COC12C(COC(N)=O)C3=C(C(=O)C(C)=C(NC4CSSC4)C3=O)N1CC1NC12 (stereo not drawn) [j, 7-N-(1,2-dithiolan-4-yl)mitomycin C] | 5.25 mg/kg | – | –
6 | CC1=C(NC2CSSC2)C(=O)C2=C(C1=O)N1CC3C(N3C)C1(O)C2COC(N)=O (stereo not drawn) [l, 7-N-(1,2-dithiolan-4-yl)mitomycin D] | 35.6 mg/kg | – | –
7 | COC12C(COC(N)=O)C3=C(C(=O)C(C)=C(NCCSSCC(O)CO)C3=O)N1CC1NC12 (stereo not drawn) [o, 7-N-[2-(2,3-dihydroxypropyl)dithioethyl]mitomycin C] | 22.5 mg/kg | – | –
8 | COC12C(COC(N)=O)C3=C(C(=O)C(C)=C(NCCSSCCN)C3=O)N1CC1NC12 (stereo not drawn) [r, 7-N-[2-(2-aminoethyl)dithioethyl)mitomycin C] | 13.5 mg/kg | 0.73 | 1.25
9 | COC12C(COC(N)=O)C3=C(C(=O)C(C)=C(NCCSSCCNC4=C(C)C(=O)C5=C(C4=O)C(COC(N)=O)C4(OC)C6NC6CN54)C3=O)N1CC1NC12 (stereo not drawn) [s, 7-N-, 7'-N'-dithiodiethylenedimitomycin C] | 18.8 mg/kg | 2.98 | 2.63
10 | COC12C(COC(N)=O)C3=C(C(=O)C(C)=C(NCCSSCCNC4=C(C)C(=O)C5=C(C4=O)C(COC(N)=O)C4(OC)C6C(CN54)N6C)C3=O)N1CC1C2N1C (stereo not drawn) [t, 7-N, 7'-N'-dithiodiethylenediporfiromycin] | 33.8 mg/kg | 2.15 | 1.34
